We go through 28 compounds from US9540392B2, “Thienopyrimidines” (BAYER PHARMA AKTIENGESELLSCHAFT, priority 2012, dated 2017).

T1 sequence (Q9BUB5 1-424 isoform Q9BUB5-2 T344D): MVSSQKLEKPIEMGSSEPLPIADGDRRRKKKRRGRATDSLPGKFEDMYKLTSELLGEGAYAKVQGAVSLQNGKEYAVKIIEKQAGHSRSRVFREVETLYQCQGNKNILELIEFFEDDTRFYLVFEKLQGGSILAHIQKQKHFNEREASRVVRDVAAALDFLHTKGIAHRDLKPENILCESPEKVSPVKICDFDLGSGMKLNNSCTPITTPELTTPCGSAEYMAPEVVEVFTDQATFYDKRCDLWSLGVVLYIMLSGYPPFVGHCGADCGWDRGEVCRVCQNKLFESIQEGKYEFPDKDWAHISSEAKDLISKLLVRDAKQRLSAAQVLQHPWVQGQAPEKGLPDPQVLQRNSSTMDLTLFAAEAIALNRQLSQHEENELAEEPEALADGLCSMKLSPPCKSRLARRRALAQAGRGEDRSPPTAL

This experiment addresses T1, human full-length MKNK1 (Homo sapiens, UniProt Q9BUB5, T385D).
T1 construct: GST (N); purchased Carna Biosciences 02-145; host or cells: insect cells (baculovirus expression system)
In words: MKNK1 kinase high ATP assay (TR-FRET). As to conditions: 2 mM ATP, after preincubation with MKNK1; read-out: MKNK1 IC50 (MKNK1 high ATP). The class given is biochemical. In a few lines:
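Compound was preincubated 15 min at 22° C. with MKNK1 in 50 mM HEPES pH 7.5, 5 mM MgCl2, 1.0 mM DTT, then the reaction ran 30 min at 22° C. with 2 mM ATP and 0.06 μM biotinylated peptide (final).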
For `COCCN1CCN(C(=O)C2CCc3c(sc4ncnc(Nc5ccc6[nH]ncc6c5)c34)C2)CC1` (racemic) [Example 133, (RS)-[4-(1H-indazol-5-ylamino)-5,6,7,8-tetrahydro[1]benzothieno[2,3-d]pyrimidin-7-yl][4-(2-methoxyethyl)piperazin-1-yl]methanone], the IC50 was 21.4 nM.

With `CC(C)Oc1cc2[nH]ncc2cc1Nc1ncnc2sc3c(c12)CCC(C(=O)N1CC2(CCS2(=O)=O)C1)C3` (racemic) [Example 222, (RS)-(1,1-Dioxido-1-thia-6-azaspiro[3.3]hept-6-yl)(4-{[6-(propan-2-yloxy)-1H-indazol-5-yl]amino}-5,6,7,8-tetrahydro[1]benzothieno[2,3-d]pyrimidin-7-yl)methanone], the IC50 was determined as 0.9 nM.

With `N#CC1CCCN(C(=O)C2CCc3c(sc4ncnc(Nc5ccc6[nH]ncc6c5)c34)C2)C1` (racemic) [Example 196, (RS)-1-{[4-(1H-indazol-5-yalmino)-5,6,7,8-tetrahydro[1]benzothieno[2,3-d]pyrimidin-7-yl]carbonyl}piperidine-3-carbonitrile], the IC50 is 7.5 nM.

Consider `CC(C)(NC(=O)C1CCc2c(sc3ncnc(Nc4ccc5[nH]ncc5c4)c23)C1)c1ccc(F)cc1` (racemic) [Example 161, (RS)-N-[2-(4-fluorophenyl)propan-2-yl]-4-(1H-indazol-5-ylamino)-5,6,7,8-tetrahydro[1]benzothieno[2,3-d]pyrimidine-7-carboxamide], for which the half-inhibitory concentration (IC50) stood at 3.2 nM.

Consider `O=C(NC1COC1)C1CCc2c(sc3ncnc(Nc4ccc5[nH]ncc5c4)c23)C1` (racemic) [Example 78, (RS)-4-(1H-Indazol-5-ylamino)-N-(oxetan-3-yl)-5,6,7,8-tetrahydro[1]benzothieno[2,3-d]pyrimidine-7-carboxamide], for which the IC50 stood at 15.6 nM.

With `CC(C)Oc1cc2[nH]ncc2cc1Nc1ncnc2sc3c(c12)CCC(C(=O)N1CCOCC1)C3` (racemic) [Example 218, (RS)-Morpholin-4-yl(4-{[6-(propan-2-yloxy)-1H-indazol-5-yl]amino}-5,6,7,8-tetrahydro[1]benzothieno[2,3-d]pyrimidin-7-yl)methanone], the IC50 worked out at 1.2 nM.

In the case of `O=C(C1CCc2c(sc3ncnc(Nc4ccc5[nH]ncc5c4)c23)C1)N1CCCC1` (stereo not shown) [Example 51, [4-(1H-Indazol-5-ylamino)-5,6,7,8-tetrahydro[1]benzothieno [2,3-d]pyrimidin-7-yl](pyrrolidin-1-yl)methanone], the IC50 amounted to 15 nM.

Turning to `O=C(NC1CC1)C1CCc2c(sc3ncnc(Nc4ccc5[nH]ncc5c4)c23)C1` (stereo not shown) [Example 44, N-Cyclopropyl-4-(1H-indazol-5-ylamino)-5,6,7,8-tetrahydro[1] benzothieno [2,3-d]pyrimidine-7-carboxamide], the IC50 came to 9 nM.

Regarding `CCOc1cc2[nH]ncc2cc1Nc1ncnc2sc3c(c12)CCC(C(=O)N1CC2(COC2)C1)C3` (racemic) [Example 239, (RS)-{4-[(6-Ethoxy-1H-indazol-5-yl)amino]-5,6,7,8-tetrahydro[1]benzothieno[2,3-d]pyrimidin-7-yl}(2-oxa-6-azaspiro[3.3]hept-6-yl)methanone], the IC50 is 0.4 nM.

As for `CC(C)Oc1cc2[nH]ncc2cc1Nc1ncnc2sc3c(c12)CCC(C(=O)N(C)CC(F)F)C3` (racemic) [Example 216, (RS)—N-(2,2-Difluoroethyl)-N-methyl-4-{[6-(propan-2-yloxy)-1H-indazol-5-yl]amino}-5,6,7,8-tetrahydro[1]benzothieno[2,3-d]pyrimidine-7-carboxamide], the half-inhibitory concentration (IC50) is 0.5 nM.

Regarding `O=C(C1CCc2c(sc3ncnc(Nc4ccc5[nH]ncc5c4)c23)C1)N1CCN(c2ccncc2)CC1` (racemic) [Example 112, (RS)-[4-(1H-indazol-5-ylamino)-5,6,7,8-tetrahydro[1]benzothieno[2,3-d]pyrimidin-7-yl][4-(pyridin-4-yl)piperazin-1-yl]methanone], the IC50 turned out to be 9.4 nM.

With `O=C(Nc1cccnc1)C1CCc2c(sc3ncnc(Nc4ccc5[nH]ncc5c4)c23)C1` (racemic) [Example 100, (RS)-4-(1H-indazol-5-ylamino)-N-(pyridin-3-yl)-5,6,7,8-tetrahydro[1]benzothieno[2,3-d]pyrimidine-7-carboxamide], the IC50 was determined as 7.5 nM.

Consider `CN1CCN(CCNC(=O)C2CCc3c(sc4ncnc(Nc5ccc6[nH]ncc6c5)c34)C2)CC1` (racemic) [Example 144, (RS)-4-(1H-indazol-5-ylamino)-N-[2-(4-methylpiperazin-1-yl)ethyl]-5,6,7,8-tetrahydro[1]benzothieno[2,3-d]pyrimidine-7-carboxamide], for which the IC50 is 21.7 nM.

`CC(C)Oc1cc2[nH]ncc2cc1Nc1ncnc2sc3c(c12)CCC(C(=O)N(C)CC1CC1)C3` (racemic) [Example 220, (RS)—N-(Cyclopropylmethyl)-N-methyl-4-{[6-(propan-2-yloxy)-1H-indazol-5-yl]amino}-5,6,7,8-tetrahydro[1]benzothieno[2,3-d]pyrimidine-7-carboxamide]: the IC50 is 0.6 nM.

As for `CN(C)C(=O)C1CCc2c(sc3ncnc(Nc4cc5cn[nH]c5cc4OCCCN=[N+]=[N-])c23)C1` (racemic) [Example 276, (RS)-4-{[6-(3-Azidopropoxy)-1H-indazol-5-yl]amino}-N,N-dimethyl-5,6,7,8-tetrahydro[1]benzothieno[2,3-d]pyrimidine-7-carboxamide], the IC50 came out at 3.9 nM.

For the compound `CN(CCN1CCCC1)C(=O)C1CCc2c(sc3ncnc(Nc4ccc5[nH]ncc5c4)c23)C1` (racemic) [Example 167, (RS)-4-(1H-indazol-5-ylamino)-N-methyl-N-[2-(pyrrolidin-1-yl)ethyl]-5,6,7,8-tetrahydro[1]benzothieno[2,3-d]pyrimidine-7-carboxamide], the IC50 came to 14.9 nM.

Consider `Cc1cccc(N2CCN(C(=O)C3CCc4c(sc5ncnc(Nc6ccc7[nH]ncc7c6)c45)C3)CC2)c1` (racemic) [Example 111, (RS)-[4-(1H-indazol-5-ylamino)-5,6,7,8-tetrahydro[1]benzothieno[2,3-d]pyrimidin-7-yl][4-(3-methylphenyl)piperazin-1-yl]methanone], for which the IC50 was 24.7 nM.

For `CCOc1cc2[nH]ncc2cc1Nc1ncnc2sc3c(c12)CCC(C(=O)O)C3` (racemic) [Example 210, (RS)-4-[(6-Ethoxy-1H-indazol-5-yl)amino]-5,6,7,8-tetrahydro[1]benzothieno[2,3-d]pyrimidine-7-carboxylic acid], the half-maximal inhibitory concentration (IC50) was 73 nM.

`O=C(NCc1cc[nH]n1)C1CCc2c(sc3ncnc(Nc4ccc5[nH]ncc5c4)c23)C1` (racemic) [Example 139, (RS)-4-(1H-indazol-5-ylamino)-N-(1H-pyrazol-3-ylmethyl)-5,6,7,8-tetrahydro[1]benzothieno[2,3-d]pyrimidine-7-carboxamide]: the IC50 was determined as 6.9 nM.

As to `O=C(C1CCc2c(sc3ncnc(Nc4ccc5[nH]ncc5c4)c23)C1)N1CCC(c2ccccc2)CC1` (racemic) [Example 127, (RS)-[4-(1H-indazol-5-ylamino)-5,6,7,8-tetrahydro[1]benzothieno[2,3-d]pyrimidin-7-yl](4-phenylpiperidin-1-yl)methanone], the IC50 was found to be 10.7 nM.

For the compound `CC(=O)N(C)C1CCN(C(=O)C2CCc3c(sc4ncnc(Nc5ccc6[nH]ncc6c5)c34)C2)C1` (racemic) [Example 198, (RS)-N-(1-{[4-(1H-indazol-5-ylamino)-5,6,7,8-tetrahydro[1]benzothieno[2,3-d]pyrimidin-7-yl]carbonyl}pyrrolidin-3-yl)-N-methylacetamide], the IC50 was 10 nM.

`O=C(C1CCc2c(sc3ncnc(Nc4ccc5[nH]ncc5c4)c23)C1)N1CCOCC1` (stereo not shown) [Example 47, [4-(1H-Indazol-5-ylamino)-5,6,7,8-tetrahydro[1]benzothieno [2,3-d]pyrimidin-7-yl](morpholin-4-yl)methanone]: the IC50 is 11 nM.

On to `CN(C)C(=O)C1CCc2c(sc3ncnc(Nc4cc5cn[nH]c5cc4N(C)C)c23)C1` (racemic) [Example 251, (RS)-4-{[6-(Dimethylamino)-1H-indazol-5-yl]amino}-N,N-dimethyl-5,6,7,8-tetrahydro[1]benzothieno[2,3-d]pyrimidine-7-carboxamide], for which the 50% inhibitory concentration (IC50) is 0.2 nM.

Turning to `CCOc1cc2[nH]ncc2cc1Nc1ncnc2sc3c(c12)CCC(C(=O)N(CC)CCC#N)C3` (racemic) [Example 242, (RS)—N-(2-Cyanoethyl)-4-[(6-ethoxy-1H-indazol-5-yl)amino]-N-ethyl-5,6,7,8-tetrahydro[1]benzothieno[2,3-d]pyrimidine-7-carboxamide], the IC50 is 0.3 nM.

Take `CCN(Cc1ccncc1)C(=O)C1CCc2c(sc3ncnc(Nc4ccc5[nH]ncc5c4)c23)C1` (racemic) [Example 109, (RS)-N-ethyl-4-(1H-indazol-5-ylamino)-N-(pyridin-4-ylmethyl)-5,6,7,8-tetrahydro[1]benzothieno[2,3-d]pyrimidine-7-carboxamide]: the IC50 was 8 nM.

As for `COc1cc2[nH]ncc2cc1Nc1ncnc2sc3c(c12)CCC(C(=O)O)C3` (stereo not shown) [Example 57, 4-[(6-Methoxy-1H-indazol-5-yl)amino]-5,6,7,8-tetrahydro[1]benzothieno[2,3-d]pyrimidine-7-carboxylic acid], the half-inhibitory concentration (IC50) came out at 7 nM.

Turning to `CCNC(=O)C1CCc2c(sc3ncnc(Nc4ccc5[nH]ncc5c4)c23)C1` (stereo not shown) [Example 46, N-Ethyl-4-(1H-indazol-5-ylamino)-5,6,7,8-tetrahydro[1] benzothieno [2,3-d]pyrimidine-7-carboxamide], the IC50 came out at 10 nM.

`Cc1cnc(CNC(=O)C2CCc3c(sc4ncnc(Nc5ccc6[nH]ncc6c5)c34)C2)cn1` (racemic) [Example 148, (RS)-4-(1H-indazol-5-ylamino)-N-[(5-methylpyrazin-2-yl)methyl]-5,6,7,8-tetrahydro[1]benzothieno[2,3-d]pyrimidine-7-carboxamide]: the IC50 stood at 8.1 nM.
